Experimental data as given in ChEMBL document CHEMBL3991601, “The target landscape of clinical kinase drugs” (Science, 2017).
The source made the active and inactive calls.

Columns and labels:
[1] = target: T1, Glycogen phosphorylase, liver form (Homo sapiens, UniProt P06737); format: subcellular, K-562, COLO 205, SK-N-BE(2) and MV-4-11, Cell lysate; settings: read-out: Kd apparent
T1 sequence (P06737 whole entry): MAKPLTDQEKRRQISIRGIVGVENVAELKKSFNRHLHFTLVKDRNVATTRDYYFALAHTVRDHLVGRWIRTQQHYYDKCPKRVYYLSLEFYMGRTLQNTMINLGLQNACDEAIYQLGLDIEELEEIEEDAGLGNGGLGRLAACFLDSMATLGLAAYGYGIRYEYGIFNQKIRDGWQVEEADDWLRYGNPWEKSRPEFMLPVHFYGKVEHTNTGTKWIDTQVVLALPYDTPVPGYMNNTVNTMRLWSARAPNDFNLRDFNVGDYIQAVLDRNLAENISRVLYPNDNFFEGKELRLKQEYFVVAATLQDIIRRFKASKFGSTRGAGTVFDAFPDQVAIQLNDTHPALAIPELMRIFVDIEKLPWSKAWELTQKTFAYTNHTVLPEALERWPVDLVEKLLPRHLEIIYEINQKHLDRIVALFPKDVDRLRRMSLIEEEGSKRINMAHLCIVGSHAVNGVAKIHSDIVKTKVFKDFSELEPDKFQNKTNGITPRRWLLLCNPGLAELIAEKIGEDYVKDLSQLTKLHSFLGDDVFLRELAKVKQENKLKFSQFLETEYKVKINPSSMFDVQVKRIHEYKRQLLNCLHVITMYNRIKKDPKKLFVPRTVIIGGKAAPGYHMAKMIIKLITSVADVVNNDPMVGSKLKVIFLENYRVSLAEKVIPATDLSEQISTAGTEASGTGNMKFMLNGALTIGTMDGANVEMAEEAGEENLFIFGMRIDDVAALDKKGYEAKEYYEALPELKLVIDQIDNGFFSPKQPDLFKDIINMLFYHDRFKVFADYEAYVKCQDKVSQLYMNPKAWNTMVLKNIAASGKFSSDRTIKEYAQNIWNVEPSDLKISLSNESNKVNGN

[2] = target: Casein kinase I isoform epsilon (Homo sapiens, UniProt P49674)
Casein kinase I isoform epsilon, sequence (P49674 whole entry, canonical isoform): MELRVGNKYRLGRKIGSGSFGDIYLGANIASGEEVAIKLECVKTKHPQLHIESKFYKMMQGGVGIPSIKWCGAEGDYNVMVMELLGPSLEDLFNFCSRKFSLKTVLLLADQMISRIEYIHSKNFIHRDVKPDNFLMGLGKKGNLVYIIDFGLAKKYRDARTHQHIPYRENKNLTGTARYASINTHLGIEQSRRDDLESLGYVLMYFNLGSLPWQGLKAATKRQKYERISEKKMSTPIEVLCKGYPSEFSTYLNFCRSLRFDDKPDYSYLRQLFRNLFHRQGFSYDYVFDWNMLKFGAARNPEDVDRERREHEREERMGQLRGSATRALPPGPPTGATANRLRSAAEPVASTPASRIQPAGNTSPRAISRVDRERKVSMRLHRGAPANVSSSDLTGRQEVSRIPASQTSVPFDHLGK

[3] = target: T2, NUAK family SNF1-like kinase 2 (Homo sapiens, UniProt Q9H093)
T2 sequence (Q9H093 whole entry): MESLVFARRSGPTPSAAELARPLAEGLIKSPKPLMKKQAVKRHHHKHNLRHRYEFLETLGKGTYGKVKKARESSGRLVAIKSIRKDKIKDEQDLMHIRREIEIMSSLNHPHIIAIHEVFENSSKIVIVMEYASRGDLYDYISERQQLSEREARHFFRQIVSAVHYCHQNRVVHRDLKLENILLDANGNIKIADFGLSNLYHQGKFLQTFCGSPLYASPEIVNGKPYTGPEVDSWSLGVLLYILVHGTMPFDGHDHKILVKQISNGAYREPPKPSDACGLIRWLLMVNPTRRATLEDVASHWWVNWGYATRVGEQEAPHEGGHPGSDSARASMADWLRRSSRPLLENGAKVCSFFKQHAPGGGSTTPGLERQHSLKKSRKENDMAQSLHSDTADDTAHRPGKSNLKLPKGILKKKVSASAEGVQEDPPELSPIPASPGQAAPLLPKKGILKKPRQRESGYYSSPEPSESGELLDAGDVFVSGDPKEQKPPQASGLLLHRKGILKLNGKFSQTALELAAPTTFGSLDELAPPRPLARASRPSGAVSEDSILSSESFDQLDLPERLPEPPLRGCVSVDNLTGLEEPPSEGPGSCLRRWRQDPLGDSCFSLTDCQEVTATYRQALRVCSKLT

[4] = target: T3, Serine/threonine-protein kinase TAO1 (Homo sapiens, UniProt Q7L7X3)
T3 sequence (Q7L7X3 whole entry): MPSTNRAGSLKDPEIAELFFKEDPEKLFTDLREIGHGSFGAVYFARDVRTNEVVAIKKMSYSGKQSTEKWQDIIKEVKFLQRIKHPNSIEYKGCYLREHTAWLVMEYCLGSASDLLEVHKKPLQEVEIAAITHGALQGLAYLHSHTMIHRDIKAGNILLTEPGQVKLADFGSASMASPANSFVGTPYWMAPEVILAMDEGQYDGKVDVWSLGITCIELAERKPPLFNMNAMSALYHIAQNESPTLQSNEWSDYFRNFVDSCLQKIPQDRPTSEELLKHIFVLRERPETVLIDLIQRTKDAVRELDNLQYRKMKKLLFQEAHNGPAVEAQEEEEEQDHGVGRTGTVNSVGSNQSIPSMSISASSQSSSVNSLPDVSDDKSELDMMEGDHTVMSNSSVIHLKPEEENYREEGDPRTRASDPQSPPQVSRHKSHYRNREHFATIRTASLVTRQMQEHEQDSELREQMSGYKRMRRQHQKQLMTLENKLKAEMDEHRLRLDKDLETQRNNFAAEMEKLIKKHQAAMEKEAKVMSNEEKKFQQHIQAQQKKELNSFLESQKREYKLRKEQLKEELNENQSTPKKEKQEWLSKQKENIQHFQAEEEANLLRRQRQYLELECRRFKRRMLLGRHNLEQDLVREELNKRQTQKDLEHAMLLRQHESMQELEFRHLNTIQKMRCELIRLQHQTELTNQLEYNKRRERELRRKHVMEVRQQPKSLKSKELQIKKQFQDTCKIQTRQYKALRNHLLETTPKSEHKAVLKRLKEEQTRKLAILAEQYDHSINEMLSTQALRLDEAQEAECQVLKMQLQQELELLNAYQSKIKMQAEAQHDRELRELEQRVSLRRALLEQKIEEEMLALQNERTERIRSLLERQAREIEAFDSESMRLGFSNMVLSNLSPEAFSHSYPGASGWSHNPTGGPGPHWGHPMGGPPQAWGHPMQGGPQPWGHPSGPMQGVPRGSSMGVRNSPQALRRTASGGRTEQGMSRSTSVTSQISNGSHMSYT
Note: in the data inactive means no Kd found up to 30 µM.

Row | Kd [1] | Kd [2] | Kd [3] | Kd [4] | SMILES
1 | > 30 µM (inactive) | > 30 µM (inactive) | > 30 µM (inactive) | > 30 µM (inactive) | Cn1ncc(Cl)c1-c1cc(C(=O)N[C@H](CN)Cc2cccc(F)c2)sc1Cl [AFURESERTIB]
2 | > 30 µM (inactive) | > 30 µM (inactive) | > 30 µM (inactive) | > 30 µM (inactive) | COC(=O)N[C@@H](C)CNc1nccc(-c2cn(C(C)C)nc2-c2cc(Cl)cc(NS(C)(=O)=O)c2F)n1 [ENCORAFENIB]
3 | > 30 µM (inactive) | > 30 µM (inactive) | > 30 µM (inactive) | > 30 µM (inactive) | CCCS(=O)(=O)Nc1ccc(F)c(C(=O)c2c[nH]c3ncc(-c4ccc(Cl)cc4)cc23)c1F [VEMURAFENIB]
4 | > 30 µM (inactive) | > 30 µM (inactive) | > 30 µM (inactive) | > 30 µM (inactive) | CCN1CCN(Cc2ccc(-c3cc4c(N[C@H](C)c5ccccc5)ncnc4[nH]3)cc2)CC1 [AEE-788]
5 | > 30 µM (inactive) | > 30 µM (inactive) | > 30 µM (inactive) | > 30 µM (inactive) | CC[C@H](Nc1ncnc2[nH]cnc12)c1nc2cccc(F)c2c(=O)n1-c1ccccc1 [IDELALISIB]
6 | > 30 µM (inactive) | > 30 µM (inactive) | > 30 µM (inactive) | > 30 µM (inactive) | CNS(=O)(=O)Nc1nccc(Cc2c(C)c3ccc(Oc4ncccn4)cc3oc2=O)c1F [AVUTOMETINIB]
7 | > 30 µM (inactive) | > 30 µM (inactive) | > 30 µM (inactive) | > 30 µM (inactive) | O=C(O)[C@]1(Cc2cccc(Nc3nccs3)n2)CC[C@@H](Oc2cccc(Cl)c2F)CC1 [MK-5108]
8 | > 30 µM (inactive) | > 30 µM (inactive) | > 30 µM (inactive) | > 30 µM (inactive) | CC(=O)Nc1cccc(-n2c(=O)n(C3CC3)c(=O)c3c(Nc4ccc(I)cc4F)n(C)c(=O)c(C)c32)c1 [TRAMETINIB]
9 | > 30 µM (inactive) | > 30 µM (inactive) | > 30 µM (inactive) | > 30 µM (inactive) | CO[C@H]1C[C@@H]2CC[C@@H](C)[C@@](O)(O2)C(=O)C(=O)N2CCCC[C@H]2C(=O)O[C@H]([C@H](C)C[C@@H]2CC[C@@H](OCCO)[C@H](OC)C2)CC(=O)[C@H](C)/C=C(\C)[C@@H](O)[C@@H](OC)C(=O)[C@H](C)C[C@H](C)/C=C/C=C/C=C/1C [EVEROLIMUS]
10 | > 30 µM (inactive) | > 30 µM (inactive) | > 30 µM (inactive) | > 30 µM (inactive) | C[C@@H](Nc1cc(F)cc(F)c1)c1cc(C(=O)N(C)C)cc2c(=O)cc(N3CCOCC3)oc12 [AZD-8186]
11 | > 30 µM (inactive) | > 30 µM (inactive) | > 30 µM (inactive) | > 30 µM (inactive) | CN1N=C(N)c2cn([C@@H]3O[C@H](COP(=O)(O)O)[C@@H](O)[C@H]3O)c3ncnc1c23 [TRICIRIBINE PHOSPHATE]
12 | > 30 µM (inactive) | > 30 µM (inactive) | > 30 µM (inactive) | – | OCCn1cc(-c2cnc3nnn(Cc4ccc5ncccc5c4)c3n2)cn1 [PF-04217903]
13 | > 30 µM (inactive) | > 30 µM (inactive) | > 30 µM (inactive) | > 30 µM (inactive) | O=c1sn(-c2cccc3ccccc23)c(=O)n1Cc1ccccc1 [TIDEGLUSIB]
14 | > 30 µM (inactive) | > 30 µM (inactive) | > 30 µM (inactive) | – | CCc1cnn2c(NCc3ccc[n+]([O-])c3)cc(N3CCCC[C@H]3CCO)nc12 [DINACICLIB]
15 | > 30 µM (inactive) | > 30 µM (inactive) | > 30 µM (inactive) | 0.388 µM (active) | CC(C)Nc1cc(-c2c[nH]c(C(=O)N[C@H](CO)c3cccc(Cl)c3)c2)c(Cl)cn1 [ULIXERTINIB]
16 | > 30 µM (inactive) | > 30 µM (inactive) | > 30 µM (inactive) | > 30 µM (inactive) | Cn1cc(-c2ccc3nnc(C(F)(F)c4ccc5ncccc5c4)n3n2)cn1 [JNJ-38877605]
17 | > 30 µM (inactive) | 0.841 µM (active) | 0.007 µM | – | Cc1nc(N)sc1-c1ccnc(Nc2ccc(N3CCOCC3)cc2)n1 [CYC-116]
18 | > 30 µM (inactive) | – | – | – | CN1CCN(c2ccc3nc(-c4c(N)c5c(F)cccc5[nH]c4=O)[nH]c3c2)CC1 [DOVITINIB]
19 | > 30 µM (inactive) | – | > 30 µM (inactive) | > 30 µM (inactive) | COc1cc2nccc(Oc3ccc(NC(=O)NC4CC4)c(Cl)c3)c2cc1C(N)=O [LENVATINIB]
20 | > 30 µM (inactive) | > 30 µM (inactive) | – | – | Cc1cc(Nc2cc(N3CCN(C)CC3)nc(/C=C/c3ccccc3)n2)n[nH]1 [ENMD-2076]
21 | > 30 µM (inactive) | – | – | – | Nc1nc(N)c2nc(-c3cccc(O)c3)c(-c3cccc(O)c3)nc2n1 [TG100-115]
22 | > 30 µM (inactive) | – | > 30 µM (inactive) | > 30 µM (inactive) | COc1cc2nccc(Oc3ccc(NC(=O)Nc4cc(C)on4)c(Cl)c3)c2cc1OC [TIVOZANIB]
23 | > 30 µM (inactive) | – | – | – | CCn1c(-c2nonc2N)nc2c(C#CC(C)(C)O)ncc(OC[C@H]3CCCNC3)c21 [GSK-690693]
24 | > 30 µM (inactive) | > 30 µM (inactive) | > 30 µM (inactive) | – | CCn1c(=O)c(-c2cc[nH]n2)cc2c(C)nc(N)nc21 [VOXTALISIB]

Row | SMILES | Kd [1] | Kd [2] | Kd [3] | Kd [4]
25 | Cc1cc(-c2cc(O)ccc2Cl)cc2nnc(Nc3ccc(OCCN4CCCC4)cc3)nc12 | > 30 µM (inactive) | > 30 µM (inactive) | > 30 µM (inactive) | > 30 µM (inactive)
26 | Cc1cn(-c2cc(NC(=O)c3ccc(C)c(Nc4nccc(-c5cccnc5)n4)c3)cc(C(F)(F)F)c2)cn1 [NILOTINIB] | > 30 µM (inactive) | – | – | –
27 | C=CC(=O)N1CCC(Oc2cc3c(Nc4ccc(Cl)c(Cl)c4F)ncnc3cc2OC)CC1 [POZIOTINIB] | > 30 µM (inactive) | > 30 µM (inactive) | > 30 µM (inactive) | > 30 µM (inactive)
28 | O=C(Nc1cccc(Cl)c1)Nc1ncc(CCNc2ncnc3ccsc23)s1 [SNS-314] | > 30 µM (inactive) | > 30 µM (inactive) | > 30 µM (inactive) | –
29 | CN1CC[C@@H](c2c(O)cc(O)c3c(=O)cc(-c4ccccc4Cl)oc23)[C@@H]1CO | > 30 µM (inactive) | > 30 µM (inactive) | > 30 µM (inactive) | > 30 µM (inactive)
30 | O=C(c1ccc(F)c(F)c1Nc1ccc(I)cc1F)N1CC(O)([C@@H]2CCCCN2)C1 [COBIMETINIB] | > 30 µM (inactive) | > 30 µM (inactive) | – | > 30 µM (inactive)
